From patent US4879381A, “7-(substituted or unsubstituted amino) 3-substituted methyl-^3 cephem-4-carboxylic acid” (Toyoma Chemical Company, Ltd., priority 1980, dated 1989)
Converted amounts (≈) assume the structure as drawn. Structures can show the parent of a compound that is named as a salt. Where two headings read alike, the source gives them in different places.

Assays:
Type in all cases: cell-based
[1] = tested on: Pro. mirabilis T-100; experiment: Antibacterial activity (MIC, agar plate); details: 37° C., 20 hours
Method: (§1) According to the standard method of the Japanese Chemotherapeutic Society [Chemotherapy, Vol. 23, Pages 1-2 (1975)], a culture obtained by cultivating bacteria in Heart Infusion broth (manufactured by Eken Kagakusha) at 37° C. for 20 hours was inoculated into a Heart Infusion agar medium (manufactured by Eiken Kagakusha) and cultivated at 37° C. for 20 hours, after which the growth of bacteria was examined visually. The minimum inhibitory concentration at which the bacterial growth was inhibited was taken as MIC (μg/ml). The amount of the inoculated bacteria was 10^4 cells/plate (10^6 cells/ml).

[2] = tested on: Ent. cloacae IID977; experiment: Antibacterial activity (MIC, agar plate); details: 10^4 cells/plate, 37° C., 20 hours
Method: as §1

[3] = tested on: Ser. marcescens IID620; experiment: Antibacterial activity (MIC, agar plate)
Method: as §1

[4] = tested on: Kl. pneumoniae Y-41; experiment: Antibacterial activity (MIC, agar plate)
Method: as §1

[5] = tested on: Pro. vulgaris GN76 (Cephalosporinase-producing bacteria); experiment: Antibacterial activity (MIC, agar plate)
Method: as §1

[6] = tested on: Al. faecalis B-1; experiment: Antibacterial activity (MIC, agar plate)
Method: as §1

[7] = tested on: Pro. mirabilis T-111; experiment: Antibacterial activity (MIC, agar plate)
Method: as §1

[8] = tested on: E. coli TK3 (Penicillinase-producing bacteria); experiment: Antibacterial activity (MIC, agar plate)
Method: as §1

[9] = tested on: Aci. calcoaceticus A-6; experiment: Antibacterial activity (MIC, agar plate); details: 37° C., 20 hours
Method: as §1

[10] = tested on: Klebsiella spp Y-72; experiment: Antibacterial activity (MIC, agar plate); details: Klebsiella spp Y-72, 10^4 cells/plate, 37° C., 20 hours
Method: as §1

[11] = tested on: Pro. morganii T-216; experiment: Antibacterial activity (MIC, agar plate)
Method: as §1

[12] = tested on: Kl. pneumoniae Y-50; experiment: Antibacterial activity (MIC, agar plate); details: 37° C., 20 hours
Method: as §1

[13] = tested on: E. coli NIHJ; experiment: Antibacterial activity (MIC, agar plate, standard method of the Japanese Chemotherapeutic Society); details: 10^4 cells/plate, 37° C., 20 hours
Method: as §1

[14] = Kl. pneumoniae Y-41, 10^4 cells/plate, 37° C., 20 hours
[15] = Pro. mirabilis T-111, 10^4 cells/plate, 37° C., 20 hours
[16] = E. coli TK3 (penicillinase-producing), 10^4 cells/plate, 37° C., 20 hours
[17] = Enterobacter cloacae, read-out: MIC
[18] = Serratia marcescens, Ser. marcescens IID620, 10^4 cells/plate, 37° C., 20 hours, read-out: MIC
[19] = Klebsiella pneumoniae, Y41, Kl. pneumoniae Y-41, 10^4 cells/plate, 37° C., 20 hours, read-out: MIC
[20] = Proteus vulgaris, Pro. vulgaris GN76 (cephalosporinase-producing), 10^4 cells/plate, 37° C., 20 hours, read-out: MIC
[21] = Alcaligenes faecalis, B1, Al. faecalis B-1, 10^4 cells/plate, 37° C., 20 hours, read-out: MIC
[22] = Proteus mirabilis, T111, Pro. mirabilis T-111, 10^4 cells/plate, 37° C., 20 hours, read-out: MIC
[23] = Acinetobacter calcoaceticus, A6, 10^4 cells/plate, read-out: MIC
[24] = Klebsiella pneumoniae, Y50, 10^4 cells/plate, read-out: MIC
[25] = Escherichia coli, read-out: MIC
[26] = Serratia marcescens, IID620, 20 h
[27] = Morganella morganii, T216, 20 h
[28] = Proteus mirabilis, T100, 10^4 cells/plate, read-out: MIC
[29] = Klebsiella pneumoniae, Y41, 20 h

| Structure (SMILES) | MIC [2, 17] | MIC [4, 19] | MIC [9, 23] | MIC [12, 24] | MIC [13, 25] | MIC ([7]; Proteus mirabilis, T111, 20 h) | MIC ([8]; Escherichia coli, 20 h) | MIC [1, 28] | also measured |
| --- | --- | --- | --- | --- | --- | --- | --- | --- | --- |
| CO/N=C(\C(=O)NC1C(=O)N2C(C(=O)O)=C(Cn3cnc(NC(C)=O)n3)CS[C@H]12)c1csc(N)n1.O=C(O)C(F)(F)F (stereo partly drawn) [A, Trifluoroacetic acid salt of 7-[2-(2-aminothiazol-4-yl)-2-(syn)-methoxyiminoacetamido]-3-[(3-acetamido-1,2,4-triazolyl)methyl]-Δ^3-cephem-4-carboxylic acid] | – | – | – | – | – | – | – | – | MIC ([1]; 10^4 cells/plate): ≤ 0.1 µg/mL; MIC [2]: 6.25 µg/mL; MIC ([3]; Ser. marcescens IID620, 10^4 cells/plate, 37° C., 20 hours): 0.78 µg/mL; MIC [4, 14]: 0.2 µg/mL; MIC ([5]; Pro. vulgaris GN76 (cephalosporinase-producing), 10^4 cells/plate, 37° C., 20 hours): 3.13 µg/mL; MIC ([6]; Al. faecalis B-1, 10^4 cells/plate, 37° C., 20 hours): 50 µg/mL; MIC [7, 15]: 0.2 µg/mL; MIC [8, 16]: 0.39 µg/mL; MIC ([9]; 10^4 cells/plate): 25 µg/mL; MIC [10]: 6.25 µg/mL; MIC ([11]; Pro. morganii T-216, 10^4 cells/plate, 37° C., 20 hours): 0.2 µg/mL; MIC ([12]; 10^4 cells/plate): ≤ 0.1 µg/mL; MIC [13]: ≤ 0.1 µg/mL |
| Cc1nnc(SCC2=C(C(=O)O)N3C(=O)[C@@H](NC(=O)Cn4cnnn4)[C@H]3SC2)s1 [Cephazoline, reference compound] | > 200 µg/mL | 3.13 µg/mL (≈ 6.89 µM) | 200 µg/mL (≈ 440 µM) | 1.56 µg/mL (≈ 3.43 µM) | 1.56 µg/mL (≈ 3.43 µM) | – | – | – | MIC [3, 18]: > 200 µg/mL; MIC [5, 20]: > 200 µg/mL; MIC [6, 21]: 100 µg/mL (≈ 220 µM); MIC [7, 22]: 6.25 µg/mL (≈ 13.8 µM); MIC ([8]; Escherichia coli, E. coli TK3 (penicillinase-producing), 10^4 cells/plate, 37° C., 20 hours, read-out: MIC): 25 µg/mL (≈ 55 µM); MIC ([10]; Y72, read-out: MIC): > 200 µg/mL; MIC ([11]; Morganella morganii, T216, Pro. morganii T-216, 10^4 cells/plate, 37° C., 20 hours, read-out: MIC): > 200 µg/mL |
| CO/N=C(\C(=O)NC1C(=O)N2C(C(=O)O)=C(Cn3ncnn3)CSC12)c1csc(N)n1 (stereo not drawn) [F, Trifluoroacetic acid salt of 7-[2-(2-aminothiazol-4-yl)-2-(syn)-methoxyiminoacetamido]-3-[2-(1,2,3,4-tetrazolyl)methyl]-Δ^3-cephem-4-carboxylic acid] | 12.5 µg/mL | ≤ 0.1 µg/mL | 6.25 µg/mL | ≤ 0.1 µg/mL | ≤ 0.1 µg/mL | ≤ 0.1 µg/mL | ≤ 0.1 µg/mL | – | MIC [3, 26]: 0.39 µg/mL; MIC [5, 20]: 0.78 µg/mL; MIC ([6]; Alcaligenes faecalis, B1, 20 h): 3.13 µg/mL; MIC [11, 27]: ≤ 0.1 µg/mL |
| CO/N=C(\C(=O)NC1C(=O)N2C(C(=O)O)=C(Cn3cnnn3)CSC12)c1csc(N)n1 (stereo not drawn) [G, Trifluoroacetic acid salt of 7-[2-(2-aminothiazol-4-yl)-2-(syn)-methoxyiminoacetamido]-3-[1-(1,2,3,4-tetrazolyl)methyl]-Δ^3-cephem-4-carboxylic acid] | 6.25 µg/mL | 0.2 µg/mL | 25 µg/mL | ≤ 0.1 µg/mL | ≤ 0.1 µg/mL | 0.2 µg/mL | 0.39 µg/mL | – | MIC [3, 18]: 1.56 µg/mL; MIC ([5]; Proteus vulgaris, GN76, 20 h): 0.78 µg/mL; MIC [6, 21]: 12.5 µg/mL; MIC [11, 27]: 0.2 µg/mL |
| CO/N=C(\C(=O)NC1C(=O)N2C(C(=O)O)=C(Cn3nnc(N)n3)CSC12)c1csc(N)n1 (stereo not drawn) [H, Trifluoroacetic acid salt of 7-[2-(2-aminothiazol-4-yl)-2-(syn)-methoxyiminoacetamido]-3-[2-(5-amino-1,2,3,4-tetrazolyl)methyl]-Δ^3-cephem-4-carboxylic acid] | 12.5 µg/mL | 0.39 µg/mL | 25 µg/mL | 0.2 µg/mL | ≤ 0.1 µg/mL | 0.39 µg/mL | 0.78 µg/mL | – | MIC [3, 26]: 0.78 µg/mL; MIC [5, 20]: 1.56 µg/mL; MIC [6, 21]: 12.5 µg/mL; MIC [11, 27]: 0.78 µg/mL |
| CO/N=C(\C(=O)NC1C(=O)N2C(C(=O)O)=C(Cn3nnc(NC(C)=O)n3)CSC12)c1csc(N)n1 (stereo not drawn) [I, Trifluoroacetic acid salt of 7-[2-(2-aminothiazol-4-yl)-2-(syn)-methoxyiminoacetamido]-3-[2-(5-acetamido-1,2,3,4-tetrazolyl)methyl]-Δ^3-cephem-4-carboxylic acid] | – | – | – | ≤ 0.1 µg/mL | ≤ 0.1 µg/mL | ≤ 0.1 µg/mL | 0.39 µg/mL | ≤ 0.1 µg/mL | MIC [4, 29]: 0.2 µg/mL |
| CO/N=C(\C(=O)NC1C(=O)N2C(C(=O)O)=C(Cn3nnc(C)n3)CSC12)c1csc(N)n1 (stereo not drawn) [J, Trifluoroacetic acid salt of 7-[2-(2-aminothiazol-4-yl)-2-(syn)-methoxyiminoacetamido]-3-[2-(5-methyl-1,2,3,4-tetrazolyl)methyl]-Δ^3-cephem-4-carboxylic acid] | – | – | – | ≤ 0.1 µg/mL | ≤ 0.1 µg/mL | – | 0.39 µg/mL | ≤ 0.1 µg/mL | MIC [4, 29]: ≤ 0.39 µg/mL; MIC [7, 22]: 0.2 µg/mL |
| CCc1nnn(CC2=C(C(=O)O)N3C(=O)C(NC(=O)/C(=N\OC)c4csc(N)n4)C3SC2)n1 (stereo not drawn) [K, Trifluoroacetic acid salt of 7-[2-(2-aminothiazol-4-yl)-2-(syn)-methoxyiminoacetamido]-3-[2-(5-ethyl-1,2,3,4-tetrazolyl)methyl]-Δ^3-cephem-4-carboxylic acid] | – | 0.78 µg/mL | – | 0.2 µg/mL | ≤ 0.1 µg/mL | 0.78 µg/mL | 0.39 µg/mL | ≤ 0.1 µg/mL | – |
| CO/N=C(\C(=O)NC1C(=O)N2C(C(=O)O)=C(Cn3cnc(Cl)n3)CS[C@H]12)c1csc(N)n1.O=C(O)C(F)(F)F (stereo partly drawn) [L, Trifluoroacetic acid salt of 7-[2-(2-aminothiazol-4-yl)-2-(syn)-methoxyiminoacetamido]-3-[(3-chloro-1,2,4-triazolyl)methyl]-Δ^3-cephem-4-carboxylic acid] | – | – | – | – | – | – | – | – | MIC ([1]; 10^4 cells/plate): ≤ 0.1 µg/mL; MIC [4, 14]: 0.39 µg/mL; MIC [7, 15]: 0.78 µg/mL; MIC [8, 16]: 0.39 µg/mL; MIC ([12]; 10^4 cells/plate): ≤ 0.1 µg/mL; MIC [13]: ≤ 0.1 µg/mL |
| CC(=O)Nc1nnn(CC2=C(C(=O)O)N3C(=O)C(NC(=O)Cc4csc(N)n4)C3SC2)n1 (stereo not shown) [M, Trifluoroacetic acid salt of 7-[2-(2-aminothiazol-4-yl)acetamido]-3-[2-(5-acetamido-1,2,3,4-tetrazolyl)methyl]-Δ^3-cephem-4-carboxylic acid] | – | 0.78 µg/mL | – | 0.78 µg/mL | 0.39 µg/mL | 0.78 µg/mL | 1.56 µg/mL | 0.39 µg/mL | – |
| Nc1nc(CC(=O)NC2C(=O)N3C(C(=O)O)=C(Cn4ncnn4)CSC23)cs1 (stereo not shown) [N, Trifluoroacetic acid salt of 7-[2-(2-aminothiazol-4-yl)acetamido]-3-[2-(1,2,3,4-tetrazolyl)methyl]-Δ^3-cephem-4-carboxylic acid] | – | 0.78 µg/mL | – | 0.39 µg/mL | 0.39 µg/mL | 0.78 µg/mL | 1.56 µg/mL | 0.39 µg/mL | – |
